Molecules are shown by their SMILES. pEC50: −log10 of the molar value. Calls of active or inactive are those of the source. The calls are words filed in the database; no cut-off is given here.

Data set [1] relates to rhinovirus B14. Briefly: Antiviral activity against Human rhinovirus B14 infected in human H1-HeLa cells assessed as reduction in virus induced cytopathic effect incubated for 3 days by MTT assay. It is filed as functional, organism-based.
Data set [2] can be described thus: Selectivity index, ratio of CC50 for cytotoxicity against human H1-HeLa cells to EC50 for antiviral activity against Human rhinovirus A71 infected in human H1-HeLa cells. It is filed as toxicity, cell-based. Conditions: for selectivity ratio: H1-HeLa cells, read-out: Ratio CC50/EC50.
The next data set has as its system rhinovirus A21. Briefly: Antiviral activity against Human rhinovirus A21 infected in human H1-HeLa cells assessed as reduction in virus induced cytopathic effect incubated for 3 days by MTT assay. It is filed as functional, organism-based. On the technique in general: Protection from cytopathic effect is a common read-out in antiviral testing.
Data set [3] can be described thus: (§1) Cytotoxicity against human H1-HeLa cells assessed as reduction in cell viability by MTT assay. It is filed as toxicity, cell-based. Particulars: H1-HeLa cells. For orientation: Tetrazolium assays rely on reduction of a dye to a coloured formazan, in cell work by metabolically active cells.
A short description of data set [4]: Antiviral activity against Human rhinovirus A71 infected in human H1-HeLa cells assessed as reduction in virus induced cytopathic effect incubated for 3 days by MTT assay. It is filed as functional, cell-based.
For a further data set, the target named is CYP2C9 (Homo sapiens, UniProt P11712). Put plainly: Inhibition of human CYP2C9 at 10 uM incubated for 20 mins in presence of NADPH regenerating system by luminescence assay relative to control. It is filed as ADME.
CYP2C9, sequence (P11712 whole entry): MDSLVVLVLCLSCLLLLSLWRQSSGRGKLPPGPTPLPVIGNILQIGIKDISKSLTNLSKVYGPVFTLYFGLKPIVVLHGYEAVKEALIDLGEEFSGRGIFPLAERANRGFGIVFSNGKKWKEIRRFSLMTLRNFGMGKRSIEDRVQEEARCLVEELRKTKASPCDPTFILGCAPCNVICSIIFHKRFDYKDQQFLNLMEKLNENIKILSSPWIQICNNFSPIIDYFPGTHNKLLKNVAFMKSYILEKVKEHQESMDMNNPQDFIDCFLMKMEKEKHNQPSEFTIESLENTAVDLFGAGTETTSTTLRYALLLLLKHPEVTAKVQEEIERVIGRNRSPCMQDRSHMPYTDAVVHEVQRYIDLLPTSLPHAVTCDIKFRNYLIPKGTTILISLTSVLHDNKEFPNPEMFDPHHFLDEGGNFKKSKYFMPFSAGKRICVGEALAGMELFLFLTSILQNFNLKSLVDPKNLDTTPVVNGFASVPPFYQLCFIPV
The subject of the next data set is Poliovirus 3. Briefly: Antiviral activity against Human poliovirus 3 infected in human H1-HeLa cells assessed as reduction in virus induced cytopathic effect incubated for 2 days by MTT assay. Particulars: Enterovirus C, 48 h. It is filed as functional, organism-based.
Data set [5] can be described thus: Selectivity index, ratio of CC50 for cytotoxicity against human H1-HeLa cells to EC50 for antiviral activity against Human rhinovirus B14 infected in human H1-HeLa cells. It is filed as toxicity, cell-based. Conditions: for selectivity ratio: H1-HeLa cells, read-out: Ratio CC50/EC50.
In the next data set the test system is Coxsackievirus B1. Put plainly: Antiviral activity against Human coxsackievirus B1 infected in human H1-HeLa cells assessed as reduction in virus induced cytopathic effect incubated for 2 days by MTT assay. It is filed as functional, organism-based. Conditions: Enterovirus B, 48 h.
In data set [6] the test system is rhinovirus B14. Put plainly: Antiviral activity against Human rhinovirus B14 infected in human H1-HeLa cells assessed as reduction in viral replication by measuring viral titre measured 3 days post infection by crystal violet staining based plaque reduction assay. It is filed as functional, organism-based. Conditions: dose 1.1-30 µM, time 3.0 day, DDE = dose-dependent effect. Background: Plaques are areas of infected cells; plaque reduction assays count them against a control.

The subject of data set [7] is rhinovirus B14. Briefly: Antiviral activity against Human rhinovirus B14 infected in human H1-HeLa cells assessed as reduction in viral titre at early stage at 10 uM pretreated for 1 hr followed by viral infection and measured after 9 hrs by time-of-addition assay. It is filed as functional, organism-based.
Data set [8] can be described thus: Selectivity index, ratio of CC50 for cytotoxicity against human H1-HeLa cells to EC50 for antiviral activity against Human rhinovirus A21 infected in human H1-HeLa cells. Particulars: for selectivity ratio: H1-HeLa cells, read-out: Ratio CC50/EC50. It is filed as toxicity, cell-based.
Data set [9] has as its system rhinovirus B14. Briefly: Antiviral activity against Human rhinovirus B14 infected in human H1-HeLa cells assessed as reduction in viral titre at 0.1 uM pretreated for 1 hr followed by viral infection and measured after 6 hrs by time-of-addition assay. It is filed as functional, organism-based.
A further data set relates to Rhinovirus A. Put plainly: Antiviral activity against Rhinovirus A33 infected in human H1-HeLa cells assessed as reduction in virus induced cytopathic effect incubated for 3 days by MTT assay. It is filed as functional, cell-based. Particulars: Rhinovirus A, 33, H1-HeLa, 72 h.
A further data set concerns Rhinovirus B. Put plainly: Antiviral activity against Rhinovirus B91 infected in human H1-HeLa cells assessed as reduction in virus induced cytopathic effect incubated for 3 days by MTT assay. Conditions: Rhinovirus B, 91, H1-HeLa, 72 h. It is filed as functional, organism-based.
The next data set relates to rhinovirus A1B. Briefly: Antiviral activity against Rhinovirus A1B infected in human H1-HeLa cells assessed as reduction in virus induced cytopathic effect incubated for 3 days by MTT assay. It is filed as functional, organism-based. Particulars: Rhinovirus A, 72 h.
In data set [10] the test system is rhinovirus B14. Briefly: Antiviral activity against Human rhinovirus B14 infected in human H1-HeLa cells assessed as reduction in viral replication by measuring viral production measured 3 days post infection by crystal violet staining based plaque reduction assay. It is filed as functional, organism-based. Conditions: dose 0.4-30 µM, time 3.0 day, DDE = dose-dependent effect.

Data set [11] has as its system rhinovirus B14. Briefly: Antiviral activity against Human rhinovirus B14 infected in human H1-HeLa cells assessed as reduction in viral titre at 1 uM pretreated for 1 hr followed by viral infection and measured immediately by time-of-addition assay. It is filed as functional, organism-based.
The next data set relates to rhinovirus A16. Put plainly: Antiviral activity against Human rhinovirus 16 infected in human H1-HeLa cells assessed as reduction in virus induced cytopathic effect incubated for 3 days by MTT assay. Particulars: Rhinovirus A, 72 h. It is filed as functional, organism-based.
A further data set deals with rhinovirus B86. Briefly: Antiviral activity against Human rhinovirus 86 infected in human H1-HeLa cells assessed as reduction in virus induced cytopathic effect incubated for 3 days by MTT assay. It is filed as functional, organism-based. Particulars: Rhinovirus B, 72 h.
The test system of the next data set is rhinovirus A2. Put plainly: Antiviral activity against Human rhinovirus 2 infected in human H1-HeLa cells assessed as reduction in virus induced cytopathic effect incubated for 3 days by MTT assay. It is filed as functional, organism-based. Conditions: Rhinovirus A, 72 h.
The subject of the next data set is H1-HeLa. The description is as §1. It is filed as toxicity, cell-based. Particulars: h1-hela.
In the next data set the target is CYP2C19 (Homo sapiens, UniProt P33261). Briefly: Inhibition of human CYP2C19 at 10 uM incubated for 20 mins in presence of NADPH regenerating system by luminescence assay relative to control. It is filed as ADME.
CYP2C19, sequence (P33261 whole entry): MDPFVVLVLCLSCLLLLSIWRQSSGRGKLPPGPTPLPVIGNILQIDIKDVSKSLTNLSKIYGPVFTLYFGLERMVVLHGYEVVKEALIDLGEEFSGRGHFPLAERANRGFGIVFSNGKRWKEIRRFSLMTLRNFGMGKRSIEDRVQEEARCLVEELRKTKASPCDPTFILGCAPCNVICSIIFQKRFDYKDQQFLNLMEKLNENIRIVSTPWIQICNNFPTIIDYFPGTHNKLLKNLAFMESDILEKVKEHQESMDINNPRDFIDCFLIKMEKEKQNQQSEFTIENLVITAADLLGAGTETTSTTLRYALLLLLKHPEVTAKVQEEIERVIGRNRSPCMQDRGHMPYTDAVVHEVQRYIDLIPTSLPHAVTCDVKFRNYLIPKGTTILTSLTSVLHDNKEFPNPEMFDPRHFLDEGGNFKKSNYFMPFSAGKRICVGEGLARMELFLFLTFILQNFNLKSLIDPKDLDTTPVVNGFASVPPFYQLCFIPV

As usually defined, the pEC50 is the EC50 on a negative log10 scale, so that one unit is a factor of ten. Usually CC50 stands for the concentration that lowers cell viability or growth by half. On to `CC(C)(C)C1CCc2c(sc3c2c(=O)n(C2CCCC2)c2nncn32)C1` (stereo unspecified), for which the pEC50 was below 4.00 in the data set with rhinovirus B14 [1] (Rhinovirus B, H1-HeLa, 72 h); below 4.00 in the data set on rhinovirus A21 (Rhinovirus A, H1-HeLa, 72 h); 4.92 in data set [4] (Rhinovirus A, H1-HeLa, 72 h). Further, the selectivity ratio in [2] was above 8.2. In addition, in data set [3], the CC50 was above 100 µM.
As usually defined, the inhibition is the share of the control response that was lost under treatment. Consider `Nc1ccc(S(=O)(=O)Nc2ccnn2-c2ccccc2)cc1` [SULFAPHENAZOLE], for which the inhibition at 20 min, 10 µM on CYP2C9 was 85.8%.
On to `CCCCn1c(=O)c2c3c(sc2n2cnnc12)CC(C(C)(C)C)CC3` (stereo unspecified), for which the pEC50 in the data set with rhinovirus B14 [1] (Rhinovirus B, H1-HeLa, 72 h) is 5.66; with Poliovirus 3 it was 5.59; in the data set with Coxsackievirus B1, below 4.64; in the data set on rhinovirus A21 (Rhinovirus A, H1-HeLa, 72 h), below 4.00; in data set [4] (Rhinovirus A, H1-HeLa, 72 h), 5.70. Besides, the selectivity ratio in data set [5] was above 45.4; in data set [2], above 50. In addition, the CC50 in [3] is above 100 µM.
As for `CCCn1c(=O)c2c3c(sc2n2cnnc12)CC(C(C)(C)C)CC3` (stereo in doubt), the Activity entry with rhinovirus B14 [6] is “Dde”. Moreover, the outcome in the data set with rhinovirus B14 [7] was Active.
Take `CCCn1c(=O)c2c3c(sc2n2cnnc12)CC(C(C)(C)C)CC3` (stereo in doubt; 2c-2): the “Ratio CC50/EC50” value in data set [8] was above 12.9; in [5] it was above 12.8; in data set [2] it was above 52.6. Moreover, the figures for the pEC50 (in the data set on rhinovirus B14 [1] (h1-hela); in the data set with rhinovirus A21 (h1-hela); in data set [4] (h1-hela)) were 5.11, 5.11 and 5.72, respectively.
Regarding `CCCCCCn1c(=O)c2c3c(sc2n2cnnc12)CC(C(C)(C)C)CC3` (stereo unspecified), the pEC50 in the data set on rhinovirus B14 [1] (Rhinovirus B, H1-HeLa, 72 h) was below 4.00; with rhinovirus A21 (Rhinovirus A, H1-HeLa, 72 h), below 4.00; in [4] (Rhinovirus A, H1-HeLa, 72 h), below 4.00. Moreover, the CC50 in data set [3] is above 100 µM.
As to `CCOC(=O)/C=C/[C@H](CC1CCNC1=O)NC(=O)[C@@H](CC(=O)[C@@H](NC(=O)c1cc(C)on1)C(C)C)Cc1ccc(F)cc1` (stereo partly specified), the result in the data set on rhinovirus B14 [9] was Active.
For `CCn1c(=O)c2c3c(sc2n2cnnc12)CC(C(C)(C)C)CC3` (stereo unspecified), the selectivity ratio is above 6.8 in [8], above 7 in [5] and above 27 in data set [2]. For the same molecule, the pEC50 is 4.85 in the data set on rhinovirus B14 [1] (Rhinovirus B, H1-HeLa, 72 h); 5.42 in the data set with Poliovirus 3; below 4.00 with Coxsackievirus B1; 4.83 in the data set with rhinovirus A21 (Rhinovirus A, H1-HeLa, 72 h); 5.43 in [4] (Rhinovirus A, H1-HeLa, 72 h). In addition, the half-maximal cytotoxic concentration (CC50) in data set [3] is above 100 µM.
In the case of `CC(C)CCn1c(=O)c2c3c(sc2n2cnnc12)CC(C(C)(C)C)CC3` (stereo unspecified), the pEC50 was below 4.00 in the data set with rhinovirus B14 [1] (Rhinovirus B, H1-HeLa, 72 h); below 4.00 in the data set with rhinovirus A21 (Rhinovirus A, H1-HeLa, 72 h); below 4.00 in data set [4] (Rhinovirus A, H1-HeLa, 72 h). In [3], the CC50 was above 100 µM.
With `Cc1cc(CCCOc2c(C)cc(-c3noc(C(F)(F)F)n3)cc2C)on1` [PLECONARIL], the selectivity ratio in data set [8] was found to be 161; in data set [5], 145; in data set [2] it was 1700. Also, the pEC50 in the data set with rhinovirus B14 [1] (Rhinovirus B, H1-HeLa, 72 h) was 6.70; in the data set on Rhinovirus A, 6.35; with Rhinovirus B, 5.85; in the data set on rhinovirus A1B, 6.62; with rhinovirus A16, 6.29; with rhinovirus B86, 6.54. The pEC50 in the data set on rhinovirus A21 (Rhinovirus A, H1-HeLa, 72 h) is 6.77; in the data set on rhinovirus A2, 7.10; in data set [4] (Rhinovirus A, H1-HeLa, 72 h), 7.77. Further, the Activity entry in the data set on rhinovirus B14 [10] is “Dde”. In the data set with rhinovirus B14 [11], the result was Active. In addition, in data set [3], the CC50 is 20.8 µM.
Consider `Cn1c(=O)c2c3c(sc2n2cnnc12)CC(C(C)(C)C)CC3` (stereo unspecified), for which the pEC50 in the data set on rhinovirus B14 [1] (Rhinovirus B, H1-HeLa, 72 h) was below 4.00; in the data set with Poliovirus 3, below 4.00; in the data set on Coxsackievirus B1, below 4.00; in the data set on rhinovirus A21 (Rhinovirus A, H1-HeLa, 72 h) it was below 4.00; in data set [4] (Rhinovirus A, H1-HeLa, 72 h) it was 4.64. Besides, in data set [2], the selectivity ratio is above 4.3. The CC50 in [3] is above 100 µM.
As for `CC(C)(C)C1CCc2c(sc3c2c(=O)n(C2CC2)c2nncn32)C1` (stereo unspecified), the selectivity ratio is 4.6 in [8], 2.3 in [5] and 8.2 in data set [2]. The pEC50 in the data set with rhinovirus B14 [1] (Rhinovirus B, H1-HeLa, 72 h) was 4.82; in the data set on rhinovirus A21 (Rhinovirus A, H1-HeLa, 72 h), 5.11; in [4] (Rhinovirus A, H1-HeLa, 72 h), 5.37. The CC50 in data set [3] was found to be 35.5 µM.
In the case of `CC(C)Cn1c(=O)c2c3c(sc2n2cnnc12)CC(C(C)(C)C)CC3` (stereo unspecified), the selectivity ratio in [8] was above 19.6; in data set [5], above 23.8; in data set [2], above 45.4. Also, the pEC50 in the data set on rhinovirus B14 [1] (Rhinovirus B, H1-HeLa, 72 h) is 5.38; with rhinovirus A21 (Rhinovirus A, H1-HeLa, 72 h), 5.29; in [4] (Rhinovirus A, H1-HeLa, 72 h), 5.66. Further, the cytotoxic concentration (CC50) in [3] is above 100 µM.
Turning to `CCCn1c(=O)c2c3c(sc2n2cnnc12)CC(C(C)(C)C)CC3` (stereo in doubt; 2c-1), the “Ratio CC50/EC50” value in data set [8] is given as above 28.5; in data set [5], above 27; in data set [2], above 58.8. In addition, the results for the pEC50 (in the data set with rhinovirus B14 [1] (h1-hela); in the data set on rhinovirus A21 (h1-hela); in [4] (h1-hela)) were 5.43, 5.46 and 5.77, respectively. The CC50 with H1-HeLa was above 100 µM.
As for `CN(C)CCC=C1c2ccccc2CCc2ccccc21` [AMITRIPTYLINE], the inhibition at 20 min, 10 µM at CYP2C19 is 90.2%.
`CC(C)(C)C1CCc2c(sc3c2c(=O)n(-c2ccccc2)c2nncn32)C1` (stereo unspecified): the selectivity ratio in [8] came out at 3.6; in data set [5], 3.7; in data set [2] it was 8.1. In addition, the pEC50 was 5.30 in the data set with rhinovirus B14 [1] (Rhinovirus B, H1-HeLa, 72 h); 5.29 with rhinovirus A21 (Rhinovirus A, H1-HeLa, 72 h); 5.64 in [4] (Rhinovirus A, H1-HeLa, 72 h). For the same molecule, in [3], the CC50 worked out at 18.7 µM.

The record behind these values is ChEMBL document CHEMBL5143628, “Enteroviral replication inhibition by N-Alkyl triazolopyrimidinone derivatives through a non-capsid binding mode” (Bioorg Med Chem Lett, 2022).
